≈ marks a conversion by molar mass, not a printed value. Bridge positions count the residues as written; N and C are the ends. Square brackets hold non-standard residues; d marks the D form. Peptide text beside a SMILES is read from it. d(aIle) = CC[C@H](C)[C@@H](N)C(=O)O; dNMeF = CN[C@H](Cc1ccccc1)C(=O)O; Nle = CCCC[C@H](N)C(=O)O; dDap = NC[C@@H](N)C(=O)O
How the values were obtained:
S. aureus ATCC 25923 = format: cell-based; details: ATCC 25923, 18 h
Protocol: (§1) . The minimum inhibitory concentrations (MICs) of synthesized compounds were assessed according to the broth microdilution method using 96-well plates, in reference to the protocol of the Clinical and Laboratory Standards Institute (CLSI).[32],[33] In assays, reference strains of the bacteria S. aureus ATCC 25923, S. epidermidis ATCC 14990, and E. coli ATCC 25922 and the fungus C. glabrata ATCC 15126 were used, all from The Polish Collection of Microorganism, Polish Academy of Sciences, Wrocław, Poland. Bacteria at initial inoculums of 0.5 × 10^5 CFU/mL in Mueller–Hinton Broth (MHB), and fungus at initial inoculums of 2 × 10^3 CFU/mL in RPMI-1640, were exposed to the serial dilution of compounds. Tested concentrations were in the range 1–512 μg/mL. 96-well plates with microorganisms and tested substances were incubated at 37 °C for 18 h for bacteria and for 24 h for C. glabrata. The MIC values were taken as the lowest concentrations at which visible growth of microorganisms was inhibited. The minimum inhibitory concentrations (MICs) for MRSA ATCC 33591 were tested at the University of Liverpool. Bacterial cultures were grown overnight in Mueller–Hinton Agar (MHA) plates and adjusted to a final concentration of 10^5–10^6 CFU/mL. 100 μL of inoculum in Meuller–Hinton broth (MHB) was mixed with an equal volume of peptides (dissolved in MHB) at 2× their concentration in a 96-well plate. […] Positive and negative controls contained 200 μL of inoculum without any peptide dissolved in broth, respectively. The 96-well plates were then incubated at 37 °C for 24 h. All the experiments were performed in two independent duplicates, and the MIC was determined as the lowest concentration in which no visible growth was observed.

[1] = test system: S. epidermidis ATCC 14990; format: cell-based; details: ATCC 14990, 18 h
Protocol: as §1

C. glabrata ATCC 15126 = experiment: microbe, parasite or virus in culture; format: cell-based; details: for MIC C. glabrata ATCC 15126: ATCC 15126, 24 h
Protocol: (§2) . The minimum inhibitory concentrations (MICs) of synthesized compounds were assessed according to the broth microdilution method using 96-well plates, in reference to the protocol of the Clinical and Laboratory Standards Institute (CLSI).[32],[33] In assays, reference strains of the bacteria S. aureus ATCC 25923, S. epidermidis ATCC 14990, and E. coli ATCC 25922 and the fungus C. glabrata ATCC 15126 were used, all from The Polish Collection of Microorganism, Polish Academy of Sciences, Wrocław, Poland. Bacteria at initial inoculums of 0.5 × 10^5 CFU/mL in Mueller–Hinton Broth (MHB), and fungus at initial inoculums of 2 × 10^3 CFU/mL in RPMI-1640, were exposed to the serial dilution of compounds. Tested concentrations were in the range 1–512 μg/mL. 96-well plates with microorganisms and tested substances were incubated at 37 °C for 18 h for bacteria and for 24 h for C. glabrata. The MIC values were taken as the lowest concentrations at which visible growth of microorganisms was inhibited. The minimum inhibitory concentrations (MICs) for MRSA ATCC 33591 were tested at the University of Liverpool. Bacterial cultures were grown overnight in Mueller–Hinton Agar (MHA) plates and adjusted to a final concentration of 10^5–10^6 CFU/mL. 100 μL of inoculum in Meuller–Hinton broth (MHB) was mixed with an equal volume of peptides (dissolved in MHB) at 2× their concentration in a 96-well plate. […] The final peptide concentrations ranged from 0.0625–32 μg/mL (the lower range 0.031–16 μg/mL was used). Positive and negative controls contained 200 μL of inoculum without any peptide dissolved in broth, respectively. The 96-well plates were then incubated at 37 °C for 24 h. All the experiments were performed in two independent duplicates, and the MIC was determined as the lowest concentration in which no visible growth was observed.

E. coli ATCC 25922 = experiment: microbe, parasite or virus in culture; format: cell-based; details: for MIC E. coli ATCC 25922: ATCC 25922, 18 h
Protocol: as §2

MRSA ATCC 33591 = format: cell-based, methicillin-resistant S. aureus; details: ATCC 33591, 24 h
Protocol: . The minimum inhibitory concentrations (MICs) of synthesized compounds were assessed according to the broth microdilution method using 96-well plates, in reference to the protocol of the Clinical and Laboratory Standards Institute (CLSI).[32],[33] In assays, reference strains of the bacteria S. aureus ATCC 25923, S. epidermidis ATCC 14990, and E. coli ATCC 25922 and the fungus C. glabrata ATCC 15126 were used, all from The Polish Collection of Microorganism, Polish Academy of Sciences, Wrocław, Poland. Bacteria at initial inoculums of 0.5 × 10^5 CFU/mL in Mueller–Hinton Broth (MHB), and fungus at initial inoculums of 2 × 10^3 CFU/mL in RPMI-1640, were exposed to the serial dilution of compounds. Tested concentrations were in the range 1–512 μg/mL. 96-well plates with microorganisms and tested substances were incubated at 37 °C for 18 h for bacteria and for 24 h for C. glabrata. The MIC values were taken as the lowest concentrations at which visible growth of microorganisms was inhibited. The minimum inhibitory concentrations (MICs) for MRSA ATCC 33591 were tested at the University of Liverpool. Bacterial cultures were grown overnight in Mueller–Hinton Agar (MHA) plates and adjusted to a final concentration of 10^5–10^6 CFU/mL. […] All the experiments were performed in two independent duplicates, and the MIC was determined as the lowest concentration in which no visible growth was observed.

MRSA = details: compared with the 4 μg/mL of the analogues; strain not given, context MRSA; cited from earlier work
Protocol: To determine the antimicrobial activity of these analogues, the MIC test using the microdilution method was chosen. Analogues were tested on three different types of bacteria: Gram-positive S. aureus and S. epidermidis, Gram-negative E. coli and fungus C. glabrata (Table 1) including the MRSA ATCC 33591.

| Molecule | MIC S. aureus ATCC 25923 (S. aureus ATCC 25923) [µg/mL] | MIC S. epidermidis ATCC 14990 [1] [µg/mL] | MIC C. glabrata ATCC 15126 (C. glabrata ATCC 15126) [µg/mL] | MIC E. coli ATCC 25922 (E. coli ATCC 25922) [µg/mL] | MIC MRSA ATCC 33591 (MRSA ATCC 33591) [µg/mL] | MIC (E. coli ATCC 25922; Escherichia coli, ATCC25922, 18 h, read-out: MIC E. coli ATCC 25922) [µg/mL] | MIC (C. glabrata ATCC 15126; Nakaseomyces glabratus, ATCC15126, CLSI broth microdilution, 96-well plates, RPMI-1640, inoculum 2 × 10^3 CFU/mL, 37 °C for 24 h, tested 1–512 μg/mL, visible growth) [µg/mL] | potency (MIC) of natural teixobactin (MRSA) [µg/mL] |
| --- | --- | --- | --- | --- | --- | --- | --- | --- |
| CC[C@H](C)[C@@H]1NC(=O)[C@H](CCCNC(=N)N)NC(=O)[C@H](C)NC(=O)[C@H](NC(=O)[C@H](CO)NC(=O)[C@@H](NC(=O)[C@H](NC(=O)[C@@H](CCC(N)=O)NC(=O)[C@H](CO)NC(=O)[C@@H](NC(=O)[C@@H](Cc2ccccc2)NC)[C@@H](C)CC)[C@@H](C)CC)[C@@H](C)CC)CNC1=O [TXGS-1, D-Dap8,Arg10-teixobactin, reference compound] | 32 (≈ 26 µM) | 256 (≈ 208 µM) | >512 | >512 |  |  |  |  |
| CCCC[C@@H]1NC(=O)[C@H](CCCNC(=N)N)NC(=O)[C@H](C)NC(=O)[C@H](NC(=O)[C@H](CO)NC(=O)[C@@H](NC(=O)[C@H](NC(=O)[C@@H](CCCNC(=N)N)NC(=O)[C@H](CO)NC(=O)[C@@H](NC(=O)[C@@H](Cc2ccccc2)NC)[C@@H](C)CC)[C@@H](C)CC)[C@@H](C)CC)CNC1=O [TXGS-7] (H-[dNMeF]IS[dR][d(aIle)]IS[dDap]AR[Nle]; lactam 8-C) | 4 (≈ 3.18 µM) | 8 (≈ 6.36 µM) | 64 (≈ 50.9 µM) | 32 (≈ 25.4 µM) | 4 (≈ 3.18 µM) |  |  |  |
| CCCC[C@@H]1NC(=O)[C@H](CCCNC(=N)N)NC(=O)[C@H](C)NC(=O)[C@H](NC(=O)[C@H](CO)NC(=O)[C@@H](NC(=O)[C@H](NC(=O)[C@@H](CCC(N)=O)NC(=O)[C@H](CO)NC(=O)[C@@H](NC(=O)[C@@H](Cc2ccccc2)NC)[C@@H](C)CC)[C@@H](C)CC)[C@@H](C)CC)CNC1=O [TXGS-3] | 4 (≈ 3.25 µM) | 64 (≈ 52.1 µM) | >512 | >512 | 4 (≈ 3.25 µM) |  |  |  |
| CCCC[C@@H]1NC(=O)[C@H](CCCNC(=N)N)NC(=O)[C@H](C)NC(=O)[C@H](NC(=O)[C@H](CO)NC(=O)[C@@H](NC(=O)[C@H](NC(=O)[C@@H](CCCNC(=N)N)NC(=O)[C@H](CO)NC(=O)[C@@H](NC(=O)[C@H](N)Cc2ccccc2)[C@@H](C)CC)[C@@H](C)CC)[C@@H](C)CC)CNC1=O [TXGS-8] (H-[dF]IS[dR][d(aIle)]IS[dDap]AR[Nle]; lactam 8-C) | 8 (≈ 6.43 µM) | 8 (≈ 6.43 µM) | 128 (≈ 103 µM) | 64 (≈ 51.5 µM) |  |  |  |  |
| CN[C@H](CC(C)C)C(=O)N[C@H]1C(=O)N[C@@H](CC(N)=O)C(=O)N[C@H]2C(=O)N[C@H]3C(=O)N[C@H](C(=O)N[C@H](C(=O)O)c4cc(O)cc(O)c4-c4cc3ccc4O)[C@H](O)c3ccc(c(Cl)c3)Oc3cc2cc(c3O[C@@H]2O[C@H](CO)[C@@H](O)[C@H](O)[C@H]2O[C@H]2C[C@](C)(N)[C@H](O)[C@H](C)O2)Oc2ccc(cc2Cl)[C@H]1O [Vancomicin, vancomycin, reference compound] |  |  |  |  |  | > 64 |  |  |
| CC[C@H](C)[C@H](NC(=O)[C@H](N)Cc1ccccc1)C(=O)N[C@@H](CO)C(=O)N[C@H](CCC(N)=O)C(=O)N[C@@H](C(=O)N[C@H](C(=O)N[C@@H](CO)C(=O)N[C@@H]1CNC(=O)[C@H]([C@@H](C)CC)NC(=O)[C@H](CCCNC(=N)N)NC(=O)[C@H](C)NC1=O)[C@@H](C)CC)[C@@H](C)CC [TXGS-2] | 32 (≈ 26.3 µM) | 128 (≈ 105 µM) | >512 | >512 |  |  |  |  |
| CC(=O)N1CCN(c2ccc(OCC3COC(Cn4ccnc4)(c4ccc(Cl)cc4Cl)O3)cc2)CC1 (stereo not drawn) [Ketoconazole, ketoconazole, reference compound] |  |  |  |  |  |  | 0.62 (≈ 1.17 µM) |  |
| CC[C@H](C)[C@H](NC(=O)[C@H](N)Cc1ccccc1)C(=O)N[C@@H](CO)C(=O)N[C@H](CCCNC(=N)N)C(=O)N[C@@H](C(=O)N[C@H](C(=O)N[C@@H](CO)C(=O)N[C@@H]1CNC(=O)[C@H]([C@@H](C)CC)NC(=O)[C@H](CCCNC(=N)N)NC(=O)[C@H](C)NC1=O)[C@@H](C)CC)[C@@H](C)CC [TXGS-6] | 64 (≈ 51.5 µM) | 64 (≈ 51.5 µM) | >512 | >512 |  |  |  |  |
| CC[C@H](C)[C@@H]1NC(=O)[C@H](CCCNC(=N)N)NC(=O)[C@H](C)NC(=O)[C@H](NC(=O)[C@H](CO)NC(=O)[C@@H](NC(=O)[C@H](NC(=O)[C@@H](CCCNC(=N)N)NC(=O)[C@H](CO)NC(=O)[C@@H](NC(=O)[C@@H](Cc2ccccc2)NC)[C@@H](C)CC)[C@@H](C)CC)[C@@H](C)CC)CNC1=O [TXGS-5] (H-[dNMeF]IS[dR][d(aIle)]IS[dDap]ARI; lactam 8-C) | 256 (≈ 204 µM) | 256 (≈ 204 µM) | 512 (≈ 407 µM) | 256 (≈ 204 µM) |  |  |  |  |
| teixobactin |  |  |  |  |  |  |  | 0.25 |

Source: publication PMC10726481, “New Teixobactin Analogues with a Total Lactam Ring” (ACS Medicinal Chemistry Letters, 2023)
